Entries after “also recorded” stand apart in the source; their conditions may differ.
Key:
HBV polymerase = target: T1, HBV polymerase (Hepatitis B virus genotype D subtype ayw, UniProt P03156); experiment: Endogenous polymerase reaction (EPR) in isolated HBV capsids; format: biochemical; details: inhibitors at 4× EC50; #138 and #211 at 30 μM; ddTTP 5.7 μM
T1 construct: expressed in transfected cells; host or cells: HepDES19 (HepG2 with a stably transfected HBV genotype D genome)
From the text: Anti-RNaseH activity is implied from their preferential suppression of the plus-polarity DNA strand (FIG. 4), but strand-preferential inhibition could also result from inhibiting the polymerase also. This is because positive-polarity DNA synthesis can be suppressed both directly by inhibiting the RNaseH enzyme and indirectly by reducing the amount of negative-polarity DNA strand that templates the positive-polarity strand, whereas minus-polarity DNA synthesis can only be suppressed by chain termination. To determine if the efficacy of these compounds was due to inhibition of the HBV polymerase, capsids isolated from HepDES19 cells were tested in the endogenous polymerase reaction (EPR) to measure DNA chain elongation by the HBV polymerase along the HBV nucleic acids within the capsids. Isolated HBV capsids were supplied with dATP, dTTP, dGTP, and [α^32P]dCTP in the presence of inhibitors at 4× their EC50 values; negative control compounds #138 and #211 were tested at 30 μM. 1% DMSO was used as a vehicle control, and ddTTP (5.7 μM) was the positive control polymerase inhibitor. Samples were incubated at 37° C. for 7 hours to permit DNA chain elongation by the encapsidated HBV polymerase. Nucleic acids were purified, resolved on a 0.8% agarose gel and detected by autoradiography. DNAs from HBV capsids treated with the compounds incorporated ^32P similarly to DMSO control (FIG. 5).
HBV cores were harvested from HepDES19 cells grown in the absence of tetracycline for 20 days using polyethylene glycol 8000 precipitation (Guo et al., 2003). Cells were rinsed in PBS and lysed in 1 mL core lysis buffer with 2 μL of protease inhibitor cocktail (Sigma) at room temperature for 10 minutes. Cell lysates were collected and 10 mM CaCl2) was added. The lysate was centrifuged for 5 minutes at 21,000 g, the supernatant was incubated with 150 U of micrococcal nuclease at 37° C. for 60 minutes, and then 27 mM EDTA was added to stop the reaction. 333 μL of 26% PEG8000 was added to precipitate core particles and incubated at 4° C. for 6 hours. The samples were centrifuged at 21,000 g for 20 minutes at 4° C. The supernatant was removed and the pellet was resuspended in 250 μL of 10 mM Tris buffer pH 7.5. Cores were stored at −80° C.
The endogenous polymerase reaction was done using a modified procedure from (Nguyen et al., 2007). […] These nucleic acids were dissolved in tris-EDTA buffer, resolved on a 0.8% agarose gel, transferred to a HyBondN membrane, and detected by autoradiography. Band intensities for each experiment were quantified using Image J and percent inhibition was calculated relative to the DMSO-treated reactions. Statistical significance of variation in band intensities was evaluated using a one-way ANOVA with a Dunnett post hoc analysis, with p=0.05 indicating significance.

HBV RNaseH = HBV RNaseH (Hepatitis B virus genotype D subtype ayw, UniProt P03156); experiment: Detection of capsid-associated RNA:DNA heteroduplexes by Southern analysis; format: cell-based; design: expressed in transfected cells; host or cells: HepDES19 (HepG2 with a stably transfected HBV genotype D genome); details: HepDES19 cells, seven days; #89 at 4×EC50 (10.4 μM), #138 at 30 μM
Sequence of HBV RNaseH (P03156 whole entry): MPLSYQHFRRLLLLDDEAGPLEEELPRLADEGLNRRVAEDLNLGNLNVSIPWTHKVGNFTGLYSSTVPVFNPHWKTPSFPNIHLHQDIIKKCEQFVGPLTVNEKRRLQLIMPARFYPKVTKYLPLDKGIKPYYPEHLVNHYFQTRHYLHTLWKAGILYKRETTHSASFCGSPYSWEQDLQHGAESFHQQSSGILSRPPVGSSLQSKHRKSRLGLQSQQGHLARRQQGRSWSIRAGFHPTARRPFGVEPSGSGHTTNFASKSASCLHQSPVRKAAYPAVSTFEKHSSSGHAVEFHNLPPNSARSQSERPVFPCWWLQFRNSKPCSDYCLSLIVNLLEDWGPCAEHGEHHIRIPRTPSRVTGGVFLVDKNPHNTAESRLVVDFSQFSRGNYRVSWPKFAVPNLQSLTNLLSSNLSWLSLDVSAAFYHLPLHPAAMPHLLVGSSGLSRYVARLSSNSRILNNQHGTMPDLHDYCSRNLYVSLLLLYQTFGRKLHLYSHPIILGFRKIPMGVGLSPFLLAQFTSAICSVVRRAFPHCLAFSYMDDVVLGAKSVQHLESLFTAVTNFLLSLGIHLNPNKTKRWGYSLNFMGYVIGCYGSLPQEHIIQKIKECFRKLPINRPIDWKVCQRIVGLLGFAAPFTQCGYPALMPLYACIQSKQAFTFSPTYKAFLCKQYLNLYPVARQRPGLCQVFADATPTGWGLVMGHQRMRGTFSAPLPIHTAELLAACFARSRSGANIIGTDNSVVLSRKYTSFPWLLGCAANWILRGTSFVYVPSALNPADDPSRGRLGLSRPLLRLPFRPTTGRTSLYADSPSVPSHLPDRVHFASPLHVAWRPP
Description: RNA:DNA heteroduplexes migrate as double-stranded products, but degradation of the RNA strand with exogenous RNase causes the DNAs to migrate as single-stranded species. To test for accumulation of RNA:DNA heteroduplexes, HepDES19 cells replicating HBV were treated with 4×EC50 (10.4 μM) of compound #89 and 30 μM compound #138 (negative control). HBV cores were harvested after seven days of compound treatment. Capsid-associated nucleic acids were purified and split into two pools; one pool was treated with RNaseA and the other pool was mock treated.
HepDES19 cells were plated in 100 mm dishes without tetracycline and incubated for 72 hours in the absence of tetracycline before addition of compound #89 at 4×EC50 (10.4 μM) and the negative control compound #138 at 30 μM; compound-containing media was replaced every three days. HBV nucleic acids were purified seven days after compound addition. HBV core particles were isolated by sedimentation through a sucrose cushion as described (Tavis et al., 1998). Cores were treated overnight with proteinase K (0.5 mg/mL) and 1.5% SDS at 37° C. Nucleic acids were purified by phenol-chloroform extraction and ethanol precipitation. The nucleic acids were split into two pools. One pool was treated with RNaseA (1.5 μg/μL) at 37° C. for 30 minutes and the other was mock-treated. […]

HBV replication = HBV replication inhibition assay in HepDES19 cells (strand-preferential q-PCR); format: cell-based, Hepatitis B virus

T1 sequence (P03156 whole entry): as above

SMILES: O=C1c2ccccc2C(=O)N1O [Compound 138]
- effect on 32P incorporation in EPR (HBV polymerase): None of the HBV inhibitors or the two negative control compounds (#138 and 211) significantly altered incorporation
- accumulation of RNA:DNA heteroduplexes (HBV RNaseH): unaltered by exogenous RNase treatment
- HBV replication inhibition / activity (HBV replication; HepDES19 cells): does not inhibit HBV replication; also recorded: inactive
- HBV replication inhibition (qualitative) (HBV replication; Table 3, qualitative screen at 20 μM): − (No inhibition detected at 20 μM)

Source: patent US20190070165A1, “N-HYDROXYISOQUINOLINEDIONE INHIBITORS OF HBV REPLICATION” (Saint Louis University, priority 2016, published 2019)
